Experimental data published in patent US11771685B2, “Compounds for the treatment of neurological or mitochondrial diseases” (MUSC FOUNDATION FOR RESEARCH DEVELOPMENT, priority 2018, dated 2023).
Where two headings read alike, the source gives them in different places.

How the values were obtained:
[1] = tested on: HT22 cells; test: HT22 oxytosis (glutamate-induced cell death) neuroprotection assay; format: cell-based, mouse; details: 10 mM Glu
Description: The HT22 murine hippocampal cell system was chosen as an initial phenotypic screen for neuroprotective efficacy (Andreux et al., 2013; Andreux et al., 2014; Ohlow et al., 2017; Schubert and Maher, 2012). HT22 cells exposed to high extracellular Glu ([…]) undergo oxytosis, a non-apoptotic programmed cell death involving glutathione (GSH) depletion followed by ROS accumulation, oxidative damage, and a cytotoxic signaling cascade (Tan et al., 2001). Glu blocks the −xC cystine antiporter, causing (Tan et al., 2001) cells to accumulate severe oxidative stress, mitochondrial depolarization, disrupted mitochondrial morphology, and Ca^2+ influx (Tan et al., 2001; Yang et al., 2011; Cheng et al., 2013—cellular events that may occur in neurological diseases, including epilepsy. Thus, the immortalized HT22 cell line is a well-established model of neuronal oxidative stress (Sagara and Schubert, 1998; Matsumoto et al., 1996; Albrecht et al., 2010; Ha and Park, 2006; van Leyen et al., 2005; Tobaben et al., 2011), and a verified model of neurodegeneration to screen for potential neuroprotective drugs (Albrecht et al., 2010; van Leyen et al., 2008; Lewerenz et al., 2009; Lewerenz et al., 2003).
Consistent with that work, most of the 2-amino compounds achieved protection of HT22 cells against glutamate-induced oxytosis in the nM to μM range. […] Neuroprotection based on relative cell viability compared to +Glu and −Glu control cells was measured.
The HT22 neuronal cell line is a subclone of HT4, derived from the mouse hippocampus (Morimoto and Koshland, 1990). […] The HT22 cells used in this study were kindly provided by Dr. David Schubert (The Salk Institute for Biological Studies, La Jolla, CA, USA). The cells were grown in Dulbecco's Modified Eagle's Medium (DMEM/high glucose) supplemented with 10% fetal bovine serum (Hyclone) and 5 mL of antibiotic-antimycotic (Amphotericin B, Penicillin, and Streptomycin; Invitrogen) at 37° C. in 5% CO2.
HT-22 cells were seeded onto 96-well plates at 2.5×10^3 cells per well in 75 μL of medium and maintained at 37° C. in 5% CO2 overnight prior to the initiation of experimental treatments. For glutamate toxicity testing, cells were subsequently treated with 25 μL of medium containing glutamate (monosodium glutamate, Sigma, 1 M stock concentration in media, to achieve a final concentration of 10 mM) plus compound (stock in DMSO) and maintained at 37° C. in 5% CO2 for 24 hr. CellTiter-Blue® (resazurin cell viability assay reagent) was then added to each well at a final concentration of 0.125 mg/mL. The mixture was allowed to incubate for 2-4 hr until sufficient color change occurred. Cell viability was measured as a function of resorufin fluorescence intensity using a Tecan M200 Pro spectrophotometer, 560 nm/590 nm (excitation/emission). Cell viability was calculated as a percentage compared with untreated controls. EC50s were determined using GraphPad Prism's “log(inhibitor) vs. normalized response-Variable slope” function. Morphology of HT22 cells following treatments was determined by phase-contrast microscopy.
(§1) Statistical analyses were performed with GraphPad Prism 6 software. For the in vitro HT22 oxytosis assay, dose-response data were fit using GraphPad Prism's log(inhibitor) vs normalized response-variable slope parameters to determine EC50 values and 95% confidence intervals. For the zebrafish locomotive anti-seizure activity data, multiple comparisons were made using a one-way analysis of variance (ANOVA) with a Kruskal-Wallis Test, followed by the Dunn's Method to determine significant differences between all pairs or between control and experimental groups using the Dunn Method for Joint Ranking. Differences were considered statistically significant when p<0.05. Data from zebrafish experiments are represented as scatter dot plots of individual measurements, with means±standard deviation indicated by bars.

[2] = tested on: PTZ-induced seizure activity in zebrafish larvae; test: Zebrafish PTZ-induced seizure model; format: in vivo; details: for minimal effective concentration / anti-seizure activity: 7 dpf larvae; for minimal effective concentration: 1 hr pre-treatment, 10 mM PTZ, read-out: Anti-seizure activity: lowest tested dose with significant difference vs PTZ-only group; for anti-seizure activity: PTZ; for inhibition in vivo at 5 µM / inhibition in vivo at 10 µM: read-out: reduction of PTZ-induced locomotor activity
Description: The zebrafish PTZ-induced seizure model was used to determine the most promising compounds' in vivo efficacy. Zebrafish larvae (7 dpf) were treated with the compound for 1 hr prior to inducing seizures with PTZ. As established by previous larval zebrafish anti-seizure studies (Rahn et al., 2014; Hansen et al., 2004; Baraban et al., 2005), total distance traveled by each fish after seizure induction was measured and used as a proxy for seizure activity. Following collection of locomotor data, observation of a startle response and visual inspection for abnormal morphology confirmed that alterations in swim activity were not caused by compound toxicity.
We induced seizures in 7 dpf zebrafish larvae by the addition of […] PTZ as originally developed by Baraban et al., 2005. In a 48-well plate, one 7-dpf zebrafish was added per well. Larvae were dosed with each compound at a sub-lethal dose 1 hr prior to PTZ treatment. Two control rows were included with each experiment—tank water only control and PTZ only. Seizures were induced by adding PTZ to wells to yield a final concentration of 10 mM. After 5 min, the plate was transferred to the Daniovision instrument (Noldus Information Technology) and the chamber light was turned on. After 2 min, MediaRecorder (Noldus) was used to record video for 15 min. A small number of videos were acquired at 25 frames per second, but the majority of data were acquired at 60 frames per second. […] Ethovision XT software (Noldus) was used to track the fish movement from the video images in order to calculate the total distance traveled over 15 min. All experimental comparisons were made between animals from the same clutch.
as §1

[3] = tested on: Zebrafish larvae; test: In vivo toxicology in zebrafish larvae; details: after 5 hr
Description: Zebrafish larvae, 7 days post-fertilization (dpf), were exposed to compounds at 20, 15, 10, and 5 μM, six larvae per compound. Animals were observed 1, 5, and 24 hr after dosing for overt toxicity (altered survival, morbidity, morphological deformity). Heart rate, behavior, and startle response were monitored at each time point.
Zebrafish (AB strain) were obtained from the Zebrafish International Resource Center (supported by P40 RR012546 from NIH—NCRR). Zebrafish were maintained and crossed according to standard methods (Westerfield, 2000). Fertilized eggs were collected and placed in E3 embryo medium and positioned in an incubator set at 28.5° C. with a 14/10-hr light/dark cycle (Kimmel et al., 1995). To determine the lethal dose of each compound, 96-well plates containing one zebrafish (7 days post-fertilization, dpf) per well in 100 μL of tank water were used. 100 μL of each compound (0.5-15 μM) was added to each well for 12 animals (one row) for a final volume of 200 μL. One row of larvae was used as dimethyl sulfoxide (DMSO)-only controls. […] All zebrafish studies were approved by the Medical University of South Carolina Institutional Animal Care and Use Committee (#180278) and performed in accordance with the guidelines.
Using a 96-well plate, 7 dpf zebrafish were placed one per well with 100 μL of tank water. 100 μL of each compound was then added to each well for 12 animals (one row) for a final volume of 200 μL. One row of zebrafish larvae was used as DMSO only controls.

[4] = Mus musculus, HT-22, 24 h, HT22 cells, 24 hr, 95% CI in parentheses
[5] = Mus musculus, HT-22, HT22 cells
[6] = HT22 cells, 24 hr, 95% CI in parentheses

Structure (SMILES) | EC50 [1, 4] | minimal effective concentration ([2]; Danio rerio) | other results
C#CCC(C)NC1=CC(=O)c2ccccc2C1=O (racemic) [Compound 20, Rac-2-(pent-4-yn-2-ylamino)naphthalene-1,4-dione] | 3690 nM | > 10 µM | EC50 [1, 5]: > 2000 nM
CC(C)=CCC/C(C)=C/CNC1=C(C)C(=O)c2ccccc2C1=O [Compound 24, (E)-2-((3,7-Dimethylocta-2,6-dien-1-yl)amino)-3-methylnaphthalene-1,4-dione] | 2740 nM | > 10 µM | EC50 [1, 5]: ~2700 nM; anti-seizure activity [2]: ineffective
CCCCOC1=CC(=O)c2ccccc2C1=O [Compound 26, 2-Butoxynaphthalene-1,4-dione] |  |  | EC50 ([1]; Mus musculus, HT-22, HT22 cells, 24 hr, 95% CI in parentheses): 78 nM
CC#CCOC1=CC(=O)c2ccccc2C1=O [Compound 28, 2-(But-2-yn-1-yloxy)naphthalene-1,4-dione] | 168 nM |  | 
COc1cccc(C#CCNC2=CC(=O)c3ccccc3C2=O)c1 [Compound 10, 2-((3-(3-Methoxyphenyl)prop-2-yn-1-yl)amino)naphthalene-1,4-dione] | 215 nM | > 20 µM | 
CS(=O)(=O)Nc1cccc(C#CCNC2=CC(=O)c3ccccc3C2=O)c1 [Compound 14, N-(3-(3-((1,4-dioxo-1,4-dihydronaphthalen-2-yl)amino)prop-1-yn-1-yl)phenyl)methanesulfonamide] | 1940 nM |  | EC50 [1, 5]: ~2000 nM; concentration lethal to all fish [3]: 10 µM
CCC#CCOC1=CC(=O)c2ccccc2C1=O [Compound 29, 2-(Pent-2-yn-1-yloxy)naphthalene-1,4-dione] | ~300 nM | ≤ 5 µM | EC50 [1, 6]: 307 nM; inhibition in vivo at 5 µM ([2]; Danio rerio): 60%; inhibition in vivo at 10 µM ([2]; Danio rerio): 53%
O=C1C=C(OCc2ccccc2)C(=O)c2ccccc21 [Compound 27, 2-(Benzyloxy)naphthalene-1,4-dione] | 168 nM |  | 
O=C1C=C(NCC#Cc2cccc(F)c2)C(=O)c2ccccc21 [Compound 9, 2-((3-(3-Fluorophenyl)prop-2-yn-1-yl)amino)naphthalene-1,4-dione] | 216 nM |  | 
C#CCC(NC1=CC(=O)c2ccccc2C1=O)c1ccccc1 (racemic) [Compound 21, Rac-2-((1-phenylbut-3-yn-1-yl)amino)naphthalene-1,4-dione] | 6150 nM | 5 µM | 
CC(C)=CCC/C(C)=C/CNC1=C(Br)C(=O)c2ccccc2C1=O [Compound 23, (E)-2-Bromo-3-((3,7-dimethylocta-2,6-dien-1-yl)amino)naphthalene-1,4-dione] | 133 nM | > 10 µM | anti-seizure activity [2]: ineffective
CC(C)=CCC/C(C)=C/CNC1=CC(=O)c2ccccc2C1=O [Compound 22, (E)-2-((3,7-Dimethylocta-2,6-dien-1-yl)amino)naphthalene-1,4-dione] | 9220 nM | 20 µM | EC50 ([1]; HT22 cells): ~9000 nM; EC50 [1, 5]: ~9200 nM; anti-seizure activity [2]: activity at 20 and 40 μM that resulted from sedation
O=C1C=C(NCC#Cc2ccc(C(F)(F)F)cc2)C(=O)c2ccccc21 [Compound 12, 2-((3-(4-(Trifluoromethyl)phenyl)prop-2-yn-1-yl)amino)naphthalene-1,4-dione] | ~500 nM | > 10 µM | EC50 [1, 6]: 566 nM; minimal effective concentration [2]: >10 µM
CCCCC#CCOC1=CC(=O)c2ccccc2C1=O [Compound 31, 2-(Hept-2-yn-1-yloxy)naphthalene-1,4-dione] | 76.1 nM | 10 µM | anti-seizure activity [2]: reduced swim distance to control levels; inhibition in vivo at 5 µM ([2]; Danio rerio): 48%; toxic effects during PTZ-induced seizure experiments ([2]; lack of survival or behavioral impairments): higher-than-normal occurrences of toxic effects
O=C1C=C(NCC#Cc2cccnc2)C(=O)c2ccccc21 [Compound 11, 2-((3-(Pyridin-3-yl)prop-2-yn-1-yl)amino)naphthalene-1,4-dione] | 290 nM |  | 
C=CCC#CCNC1=CC(=O)c2ccccc2C1=O [Compound 6, 2-(Hex-5-en-2-yn-1-ylamino)naphthalene-1,4-dione] | 2640 nM | 10 µM | inhibition in vivo at 5 µM ([2]; Danio rerio): ~65%; inhibition in vivo at 10 µM ([2]; Danio rerio): 85%
O=C1C=C(NCC#Cc2cccc(C(F)(F)F)c2)C(=O)c2ccccc21 [Compound 13, 2-((3-(3-(Trifluoromethyl)phenyl)prop-2-yn-1-yl)amino)naphthalene-1,4-dione] | ~500 nM | > 10 µM | EC50 [1, 6]: 584 nM; minimal effective concentration [2]: >10 µM
CCCC#CCOC1=CC(=O)c2ccccc2C1=O [Compound 30, 2-(Hex-2-yn-1-yloxy)naphthalene-1,4-dione] | 249 nM | 5 µM | inhibition in vivo at 5 µM ([2]; Danio rerio): 53%; inhibition in vivo at 10 µM ([2]; Danio rerio): 68%
CC#CCC(CO)NC1=CC(=O)c2ccccc2C1=O (racemic) [Compound 18, Rac-2-((1-hydroxyhex-4-yn-2-yl)amino)naphthalene-1,4-dione] | 2170 nM | > 10 µM | EC50 [1, 5]: > 2000 nM
